Columns and labels:
Conditions in all cases: displacement of 3H-prostaglandin E2, 293S membranes, 1 hour at 25° C.
rat EP2 receptor = target: T1, rat EP2 receptor (Rattus norvegicus, UniProt Q62928); assay: Rat EP2 receptor binding assay (3H-PGE2 displacement, 293S cell membranes)
T1 construct: The full-length rat EP2 receptor is made in accordance with the procedure in Nemoto et al; expressed in transfected cells
Excerpt: (§1) The compounds of Formula I or II, which are useful in the methods of the present invention, bind to the prostaglandin E2 type 4 receptor (EP4 receptor). The full-length coding sequence for the human EP1 receptor is made in accordance with the procedure in Funk et al., Journal of Biological Chemistry, 1993, 268, 26767-26772. The full-length rat EP2 receptor is made in accordance with the procedure in Nemoto et al., Prostaglandins and other Lipid Mediators, 1997, 54, 713-725. The full-length coding sequence for the human EP3 receptor is made in accordance with the procedure in Regan et al., British Journal of Pharmacology, 1994, 112, 377-385. The full-length coding sequence for the rat EP4 receptor is made in accordance with the procedure in Sando et al., Biochem. Biophys. Res. Comm. 1994, 200,1329-1333. These full-length receptors are used to prepare 293S cells expressing the human EP1, rat EP2, human EP3 or rat EP4 receptors.
(§2) Human EP1, Rat EP2, Human EP3, Rat EP4 Receptor Binding Assay
(§3) The full-length receptors described above are used to prepare 293S cells expressing the EP1, EP2, EP3, and EP4 receptors.
(§4) 293S cells expressing either the human EP1, rat EP2, human EP3 or rat EP4 prostaglandin E2 receptors are generated according to methods known to those skilled in the art. Typically, PCR (polymerase chain reaction) primers corresponding to the 5′ and 3′ ends of the published full length receptor are made according to the well known methods disclosed above and are used in an RT-PCR (reverse transcriptase-polymerase chain reaction) reaction using the total RNA from human kidney (for EP1), rat kidney (for EP2), human lung (for EP3), or rat kidney (EP4) as a source. PCR products are cloned by the TA overhang method into pCR2.1 (Invitrogen Corporation, Carlsbad, Calif.) and identity of the cloned receptor is confirmed by DNA sequencing. For expression of the rat EP2 receptor, the confirmed cDNA is subcloned into the mammalian expression vector PURpCl, a vector generated by subcloning the selectable marker for puromycin resistance into the mammalian expression vector pCl (Promega, Madison, Wis.)
(§5) 293S cells are transfected with either the cloned human EP1 or EP3 receptor in pcDNA3 by electroporation. Stable cell lines expressing either the human EP1 or EP3 receptor are established following selection of transfected cells with G418. 293S cells are transfected with the cloned rat EP2 receptor in PURpCi by lipid mediated transfection. Stable cell lines expressing the rat EP2 receptor are established following selection of transfected cells with puromycin. 293S cells are transfected with the cloned rat EP4 receptor in pcDNA3 by lipid mediated transfection. Stable cell lines expressing the rat EP4 receptor are established following selection of transfected cells with Geneticin® (Invitrogen, Carlsbad, Calif.).
(§6) Clonal cell lines expressing the maximal number of receptors are chosen following a whole cell ^3H-PGE2 binding assay using unlabeled PGE2 as a competitor.
(§7) Membrane Preparation: All operations are performed at 4° C. Transfected cells expressing either prostaglandin E2 type 1, type 2, type 3, or type 4 (EP1, EP2, EP3, or EP4, respectively) receptors are harvested and suspended to 2 million cells per ml in Buffer A [50 mM Tris-HCl (pH 7.4), 10 mM MgCI2, 1 mM EDTA, 1 mM Pefabloc peptide, (Boehringer Mannheim Corp., Indianapolis, Ind.), 10 uM Phosporamidon peptide, (Sigma, St. Louis, Mo.), 1 uM pepstatin A peptide, (Sigma, St. Louis, Mo.), 10 uM elastatinal peptide, (Sigma, St. Louis, Mo.), 100 uM antipain peptide, (Sigma, St. Louis, Mo.)]. The cells are lysed by sonification with a Branson Sonifier (Branson Ultrasonics Corporation, Danbury, Conn.) in 2 fifteen-second bursts. Unlysed cells and debris are removed by centrifugation at 100 ×g for 10 min. Membranes are then harvested by centrifugation at 45,000×g for 30 minutes. […]

rat EP4 receptor = target: T2, rat EP4 receptor (Rattus norvegicus, UniProt P43114); assay: Rat EP4 receptor binding assay (3H-PGE2 displacement, 293S cell membranes)
T2 construct: expressed in transfected cells
T2 sequence (P43114 whole entry): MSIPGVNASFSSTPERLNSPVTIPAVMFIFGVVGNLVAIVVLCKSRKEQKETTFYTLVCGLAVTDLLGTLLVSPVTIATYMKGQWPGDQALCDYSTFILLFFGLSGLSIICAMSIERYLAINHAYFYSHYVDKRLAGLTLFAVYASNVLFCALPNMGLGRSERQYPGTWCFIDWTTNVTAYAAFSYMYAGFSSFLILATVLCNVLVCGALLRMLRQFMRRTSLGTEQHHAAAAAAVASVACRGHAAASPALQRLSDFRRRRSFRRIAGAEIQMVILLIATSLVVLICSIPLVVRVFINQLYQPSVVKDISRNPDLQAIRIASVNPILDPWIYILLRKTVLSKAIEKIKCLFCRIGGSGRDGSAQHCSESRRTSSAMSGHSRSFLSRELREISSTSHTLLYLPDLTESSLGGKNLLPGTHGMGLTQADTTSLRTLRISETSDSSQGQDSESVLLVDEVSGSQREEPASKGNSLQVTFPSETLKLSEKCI
Excerpt: as §1, §2, §3, §4, §5, §6, §7

human EP3 receptor = target: T3, human EP3 receptor (Homo sapiens, UniProt P43115); assay: Human EP3 receptor binding assay (3H-PGE2 displacement, 293S cell membranes)
T3 construct: expressed in transfected cells
T3 sequence (P43115 1-390): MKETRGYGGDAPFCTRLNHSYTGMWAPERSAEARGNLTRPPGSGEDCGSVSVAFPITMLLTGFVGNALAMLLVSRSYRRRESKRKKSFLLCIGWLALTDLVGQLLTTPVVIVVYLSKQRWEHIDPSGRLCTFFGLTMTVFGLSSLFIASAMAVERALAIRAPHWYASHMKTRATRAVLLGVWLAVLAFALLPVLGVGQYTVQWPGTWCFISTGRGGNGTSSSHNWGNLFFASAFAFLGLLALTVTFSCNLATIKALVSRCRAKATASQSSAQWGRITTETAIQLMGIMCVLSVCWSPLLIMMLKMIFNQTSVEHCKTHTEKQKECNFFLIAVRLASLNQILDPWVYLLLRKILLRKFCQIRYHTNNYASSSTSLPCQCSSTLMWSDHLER
Excerpt: as §1, §2, §3, §4, §5, §6, §7

T1 sequence (Q62928 whole entry): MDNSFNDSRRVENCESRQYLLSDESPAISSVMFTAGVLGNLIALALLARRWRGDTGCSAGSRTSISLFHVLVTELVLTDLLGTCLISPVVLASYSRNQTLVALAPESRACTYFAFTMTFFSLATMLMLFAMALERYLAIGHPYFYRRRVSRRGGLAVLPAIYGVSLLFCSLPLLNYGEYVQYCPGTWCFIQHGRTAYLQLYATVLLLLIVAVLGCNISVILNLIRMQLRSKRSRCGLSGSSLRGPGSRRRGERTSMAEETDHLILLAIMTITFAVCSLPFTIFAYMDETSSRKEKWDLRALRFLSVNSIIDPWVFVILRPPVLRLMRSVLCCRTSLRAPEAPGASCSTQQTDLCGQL

| SMILES | IC50 (rat EP2 receptor) [nM] | IC50 (rat EP4 receptor) [nM] | IC50 (human EP3 receptor) [nM] |
| --- | --- | --- | --- |
| O=C(O)CCCCCCN1C(=O)CC[C@@H]1CC[C@@H](O)Cc1cccc(C(F)(F)F)c1 [Example 2, 7-{2S-[3R-hydroxy-4-(3-trifluoromethyl-phenyl)-butyl]-5-oxo-pyrrolidin-1-yl}-heptanoic acid] | 2760 | 21 | > 3200 |
| O=C(O)CCCCCCN1C(=O)CC[C@@H]1CC[C@@H](O)Cc1cccc(Cl)c1 [Example 1, 7-{2S-[4-(3-Chloro-phenyl)-3R-hydroxy-butyl]-5-oxo-pyrrolidin-1-yl}-heptanoic acid] | > 3200 | 22 | > 3200 |
| O=C1CC[C@H](CCC(O)Cc2cccc(Cl)c2)N1CCCCCCc1nn[nH]n1 (stereo partly drawn) [Example 3, 5S-[4-(3-Chloro-phenyl)-3-hydroxy-butyl]-1-[6-(2H-tetrazol-5-yl)-hexyl]-pyrrolidin-2-one] | 2370 | 38 | > 3200 |
| O=C(O)CCCCCCN1C(=O)CCC1CCC(O)Cc1ccccc1 (stereo not drawn) [Example 9, 7-(2-(3-hydroxy-4-phenyl-butyl)-5-oxo-pyrrolidin-1-yl)-heptanoic acid] | > 3200 | 54 | > 3200 |
| O=C1CC[C@H](CC[C@@H](O)Cc2cccc(C(F)(F)F)c2)N1CCCCCCc1nn[nH]n1 [Example 4, 5S-[3R-Hydroxy-4-(3-trifluoromethyl-phenyl)-butyl]-1-[6-(2H-tetrazol-5-yl)-hexyl]-pyrrolidin-2-one] | > 3200 | 33 | > 3200 |
| O=C1CCC(CCC(O)Cc2cccc(-c3ccccc3)c2)N1CCCCCCc1nn[nH]n1 (stereo not drawn) [Example 6, 5-(4-Biphenyl-3-yl-3-hydroxy-butyl)-1-[6-(2H-tetrazol-5-yl)-hexyl]-pyrrolidin-2-one] | 3050 | 50 | > 3200 |

Source: patent publication US20030176479A1, “Use of selective EP4 receptor agonists for the treatment of liver failure, loss of patency of the ductus arteriosus, glaucoma or ocular hypertension” (priority 2002, published 2003)
